Consider 18 compounds from patent US11459327B1, “Cycloalkyl and hetero-cycloalkyl inhibitors, preparation methods therefor, and use thereof” (Suzhou Zelgen Biopharmaceuticals Co., Ltd., priority 2019, dated 2022).

pIC50: −log10 of the molar value.

A word on the Tmax: it is the time from dosing to the highest level. A word on the AUC: it is the area under the concentration-time curve, a measure of exposure. Higher therefore signals high exposure. Usually Cmax stands for the maximum level reached in the sampled fluid or tissue. As usually defined, the pIC50 is the IC50 on a negative log10 scale, so that one unit is a factor of ten. Low readings indicate a large IC50, high ones a small IC50.

A short description of data set [1]: Pharmacokinetics test evaluation in rats, plasma concentration by LC/MS/MS. In kind it is in vivo. The following applies: male SD rats, 15 mg/kg by gavage; for T1/2 / Tmax / AUC / Cmax: n = 4, mean; for AUC / Cmax: rat, plasma, po. The method, then: Male SD rats, with a body weight of about 220 g, were given 15 mg/kg solution of the compound of the invention or the control compound by gavage after overnight fasting [10% […] (captisol) and 50 mM sodium citrate (pH 5) as vehicle]. Blood samples were collected at 0.5, 1.0, 2.0, 4.0, 6.0, 8.0, 12.0 and 24 hours after the compound was administrated, and the concentrations of the compound or the control compound in plasma were determined by LC/MS/MS.
The plasma concentration-time curves of Examples 13 and 14 and control compounds were shown in FIG. 1, and the pharmacokinetics parameters were shown in Table 2: […]

Data set [2] relates to A549(KRAS^G12S mutation) cells. Description: Cell assay of antiproliferative activity (Celltiter-Glo, 5 days) against A549 cells. The following applies: Homo sapiens, 120 h, 5 days incubation. Type of data set: cell-based. The method, then:
Cell assay of antiproliferative activity of compounds against NCI-H358(KRAS^G12C mutation) and A549(KRAS^G12S mutation) cells.
40 μl phosphate buffer was added to the outer wells of the 384 microplate, and 40 μl cell suspension to be tested was added to the other wells. Then the microplate was incubated in a carbon dioxide incubator overnight.
The compounds to be tested were gradiently diluted, each compound was performed 10 concentration gradients (diluted from 50 μM to 0.003 μM) and added 100 nL to the corresponding wells in the microplate. After addition, 40 μl of phosphate buffer was added to each well in rows A and P and columns 1 and 24, and then the microplate was incubated in a carbon dioxide incubator for 5 days.
20 μL of Promega Celltiter-Glo reagent was added to each well of the microplate, and then the luminescence signal was stabilized by oscillating at room temperature for 10 min. Then PekinElmer Envision multi-label analyzer was used to read.
Finally, GraphPad Prism software was used to calculate the IC50 value of the compound and the fitting curve was drawn.
Anti-proliferative activity of the compounds of the present invention against NCI-H358(KRAS^G12C mutation) and A549(KRAS^G12S mutation) cells were shown in Table 1.
A general note: In ATP-based viability assays light output follows the ATP content of the culture.

In data set [3] the test system is NCI-H358(KRAS^G12C mutation) cells. The experiment in a line: Cell assay of antiproliferative activity (Celltiter-Glo, 5 days) against NCI-H358 cells. In kind it is cell-based. The following applies: Homo sapiens, NCI-H358, 120 h, 5 days incubation. The procedure, abridged: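 Cells plated overnight, then given a 10-point compound series (stock dilutions 50 μM to 0.003 μM, 100 nL added per well) and grown 5 days. Luminescence read after 10 min shaking at room temperature. IC50 from curve fitting.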

As to `C=C(F)C(=O)N1CCN(c2nc(OC[C@@H]3CCCN3C)nc3c2CCN(c2cccc4cccc(Cl)c24)C3)CC1CC#N` (stereo partly drawn) [Control compound, reference compound], in data set [1], the T1/2 came to 2.47 h, the Tmax is 4.0 h, the AUC is 830 ng·h/mL and the Cmax was 123 ng/mL.

Consider `C=C(F)C(=O)N1CCN(c2nc(OCC3(CN(C)C)CC3)nc3c2CCN(c2cccc4cccc(Cl)c24)C3)CC1CC#N` (stereo not drawn) [Example 13], for which, in data set [2], the pIC50 is 5.22. In data set [3], this compound showed a pIC50 of 7.26. In addition, in data set [1], the T1/2 was determined as 2.33 h, the time of peak concentration (Tmax) was determined as 4.0 h, the AUC came to 1400 ng·h/mL and the Cmax was 163 ng/mL. For the same compound, the bioavailability entry in data set [1] (conclusion in words) is “excellent bioavailability”. The “metabolic properties in rats compared with the control compound” value in data set [1] (higher Cmax and higher plasma exposure AUC) is listed as “better metabolic properties in rats”.

Consider `C=C(F)C(=O)N1CCN(c2nc(OCCN(C)C3CCC3)nc3c2CCN(c2cccc4ccc(F)c(Cl)c24)C3)CC1CC#N` (stereo not drawn) [Example 14, 2-(4-(7-(8-chloro-7-fluoronaphthalen-1-yl)-2-(2-(cyclobutyl(methyl)amino)ethoxy)-5,6,7,8-tetrahydropyrido[3,4-d]pyrimidin-4-yl)-1-(2-fluoroacroloyl)piperazin-2-yl) acetonitrile], for which the negative-log IC50 (pIC50) in data set [2] was 5.21. Moreover, the pIC50 in data set [3] was 7.05. Also, in data set [1], the T1/2 came to 1.69 h, the Tmax was 1.25 h, the AUC came out at 392 ng·h/mL and the Cmax is 85.1 ng/mL.

As for `C=CC(=O)N1CCN(c2nc(OCCN(C)C3CCC3)nc3c2CCN(c2cccc4ccc(F)c(C)c24)C3)CC1CC#N` (stereo not drawn) [Example 21, 2-(1-acroloyl-4-(2-(2-(cyclobutyl(methyl)amino)ethyoxyl)-7-(7-fluoro-8-methylnaphthalen-1-yl)-5,6,7,8-tetrahydropyrido[3,4-d]pyrimidin-4-yl)piperazin-2-yl) acetonitrile], the pIC50 in data set [2] was 5.11; in data set [3] it was 7.57.

For `C=C(F)C(=O)N1CCN(c2nc(OCCN(C)C3CCC3)nc3c2CCN(c2cccc4ccc(F)c(C)c24)C3)CC1CC#N` (stereo not drawn) [Example 22, 2-(4-(2-(2-(cyclobutyl(methyl)amino)ethyoxyl)-7-(7-fluoro-8-methylnaphthalen-1-yl)-5,6,7,8-tetrahydropyrido[3,4-d]pyrimidin-4-yl)-1-(2-fluoroacroloyl)piperazin-2-yl) acetonitrile], the pIC50 in data set [2] is 5.66; in data set [3], 7.04.

With `C=CC(=O)N1CCN(c2nc(OCCN(C)C3CC3)nc3c2CCN(c2cccc4cccc(C)c24)C3)CC1CC#N` (stereo not drawn) [Example 70, 2-(1-acroloyl-4-(2-(2-((cyclopropyl)(methyl)amino)ethoxy)-7-(8-methylnaphthalen-1-yl)-5,6,7,8-tetrahydropyrido[3,4-d]pyrimidin-4-yl)piperazin-2-yl) acetonitrile], the pIC50 in data set [2] is 4.94; in data set [3], 6.77.

With `C=CC(=O)N1CCN(c2nc(OC[C@H](C)N(C)C3CC3)nc3c2CCN(c2cccc4cccc(C)c24)C3)CC1CC#N` (stereo partly drawn) [Example 71, 2-(1-acroloyl-4-(2-((S)-2-(cyclopropyl(methyl)amino)propoxy)-7-(8-methylnaphthalen-1-yl)-5,6,7,8-tetrahydropyrido[3,4-d]pyrimidin-4-yl)piperazin-2-yl) acetonitrile], the pIC50 was 4.94 in data set [2] and 6.82 in data set [3].

Regarding `C=CC(=O)N1CCN(c2nc(OC[C@@H](C)N(C)C3CC3)nc3c2CCN(c2cccc4cccc(C)c24)C3)CC1CC#N` (stereo partly drawn) [Example 72, 2-(1-acroloyl-4-(2-((R)-2-(cyclopropyl(methyl)amino)propoxy)-7-(8-methylnaphthalen-1-yl)-5,6,7,8-tetrahydropyrido[3,4-d]pyrimidin-4-yl)piperazin-2-yl) acetonitrile], the pIC50 is 4.97 in data set [2] and 6.74 in data set [3].

On to `C=CC(=O)N1CCN(c2nc(OCCN(C)CC3CC3)nc3c2CCN(c2cccc4cccc(C)c24)C3)CC1CC#N` (stereo not drawn) [Example 73], for which the pIC50 in data set [2] was 5.43; in data set [3], 7.22.

As to `C=CC(=O)N1CCN(c2nc(OC[C@H](C)N(C)CC3CC3)nc3c2CCN(c2cccc4cccc(C)c24)C3)CC1CC#N` (stereo partly drawn) [Example 74], the pIC50 in data set [2] was 5.59; in data set [3], 7.10.

As for `C=CC(=O)N1CCN(c2nc(OC[C@@H](C)N(C)CC3CC3)nc3c2CCN(c2cccc4cccc(C)c24)C3)CC1CC#N` (stereo partly drawn) [Example 75], the pIC50 in data set [2] is 5.55; in data set [3] it was 7.05.

Take `C=CC(=O)N1CCN(c2nc(O[C@@H](C)CN(C)CC3CC3)nc3c2CCN(c2cccc4cccc(C)c24)C3)CC1CC#N` (stereo partly drawn) [Example 76, 2-(1-acroloyl-4-(2-(((S)-1-((cyclopropylmethyl)(methyl)amino)propan-2-yl)oxy)-7-(8-methylnaphthalen-1-yl)-5,6,7,8-tetrahydropyrido[3,4-d]pyrimidin-4-yl)piperazin-2-yl) acetonitrile]: the figures for the pIC50 in data set [2] and in data set [3] were 5.46 and 6.07, respectively.

For `C=CC(=O)N1CCN(c2nc(O[C@H](C)CN(C)CC3CC3)nc3c2CCN(c2cccc4cccc(C)c24)C3)CC1CC#N` (stereo partly drawn) [Example 77, 2-(1-acroloyl-4-(2-(((R)-1-((cyclopropylmethyl)(methyl)amino)propan-2-yl)oxy)-7-(8-methylnaphthalen-1-yl)-5,6,7,8-tetrahydropyrido[3,4-d]pyrimidin-4-yl)piperazin-2-yl) acetonitrile], the pIC50 is 5.57 in data set [2] and 5.74 in data set [3].

As for `C=CC(=O)N1CCN(c2nc(OCCN(C)[C@@H](C)C3CC3)nc3c2CCN(c2cccc4cccc(C)c24)C3)CC1CC#N` (stereo partly drawn) [Example 78], the pIC50 in data set [2] was 5.55; in data set [3], 7.30.

With `C=CC(=O)N1CCN(c2nc(OCCN(C)[C@H](C)C3CC3)nc3c2CCN(c2cccc4cccc(C)c24)C3)CC1CC#N` (stereo partly drawn) [Example 79, 2-(1-acroloyl-4-(2-(2-(((R)-1-cyclopropylmethyl)(methyl)amino)ethoxy)-7-(8-methylnaphthalen-1-yl)-5,6,7,8-tetrahydropyrido[3,4-d]pyrimidin-4-yl)piperazin-2-yl) acetonitrile], the pIC50 in data set [2] was 5.51; in data set [3], 7.40.

In the case of `C=CC(=O)N1CCN(c2nc(OCCN(C)C3CCC3)nc3c2CCN(c2cccc4cccc(C)c24)C3)CC1CC#N` (stereo not drawn) [Example 81, 2-(1-acroloyl-4-(2-(2-((cyclobutyl)(methyl)amino)ethoxy)-7-(8-methylnaphthalen-1-yl)-5,6,7,8-tetrahydropyrido[3,4-d]pyrimidin-4-yl)piperazin-2-yl) acetonitrile], the figures for the pIC50 in data set [2] and in data set [3] were 5.12 and 7.40, respectively.

Regarding `C=CC(=O)N1CCN(c2nc(OCCN(C)CC3CCC3)nc3c2CCN(c2cccc4cccc(C)c24)C3)CC1CC#N` (stereo not drawn) [Example 82, 2-(1-acroloyl-4-(2-(2-((cyclobutylmethyl)(methyl)amino)ethoxy)-7-(8-methylnaphthalen-1-yl)-5,6,7,8-tetrahydropyrido[3,4-d]pyrimidin-4-yl)piperazin-2-yl) acetonitrile], the negative logarithm of the IC50 (pIC50) in data set [2] was 5.18; in data set [3] it was 6.80.

For the compound `C=CC(=O)N1CCN(c2nc(OCCOC3CC3)nc3c2CCN(c2cccc4cccc(C)c24)C3)CC1CC#N` (stereo not drawn) [Example 93, 2-(1-acroloyl-4-(2-(2-cyclopropoxyethyoxy)-7-(8-methylnaphthalen-1-yl)-5,6,7,8-tetrahydropyrido[3,4-d]pyrimidin-4-yl)piperazin-2-yl) acetonitrile], the pIC50 was 5.11 in data set [2] and 6.51 in data set [3].
